Results reported in PMC8119889, “Computational Identification of a Putative Allosteric Binding Pocket in TMPRSS2” (Frontiers in Molecular Biosciences, 2021).

Biological target: T1, TMPRSS2 (transmembrane serine protease 2) (Homo sapiens, UniProt O15393)
T1 construct: Recombinant human TMPRSS2 (106-492aa, 6xHisTag)
Test: microscale thermophoresis (His-tag RED-tris-NTA labelled protein, […])
Type: binding

T1 sequence (O15393 106-492): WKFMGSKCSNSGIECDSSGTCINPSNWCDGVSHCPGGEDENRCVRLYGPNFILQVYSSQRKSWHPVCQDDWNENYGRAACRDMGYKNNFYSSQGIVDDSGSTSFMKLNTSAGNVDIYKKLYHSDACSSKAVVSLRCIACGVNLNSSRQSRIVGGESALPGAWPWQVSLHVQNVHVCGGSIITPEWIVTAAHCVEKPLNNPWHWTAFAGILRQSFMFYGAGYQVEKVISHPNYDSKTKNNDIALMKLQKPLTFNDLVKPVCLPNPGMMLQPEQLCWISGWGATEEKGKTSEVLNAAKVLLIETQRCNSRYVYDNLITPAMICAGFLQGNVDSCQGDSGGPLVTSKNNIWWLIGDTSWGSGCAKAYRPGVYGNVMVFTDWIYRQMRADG

`CN(Cc1cc(Br)cc(Br)c1N)C1CCCCC1` [BH, bromhexine] gave a Kd of 24 ± 13 µM.
